The test system of assay [1] is HCT116 (colorectal carcinoma, K Ras G13D) cells. Kind of assay: Cell proliferation (Alamar Blue) assay, HCT116. In kind it is cell-based, human. The settings on record: Homo sapiens, HCT-116, HCT116 cells. Here is the method:
(§1) Cell Proliferation (Alamar Blue) Assay
(§2) HT-29 (colorectal carcinoma, B-RafV600E), HCT116 (colorectal carcinoma, K Ras G13D), A375 (melanoma, B-RafV600E) and SK-Mel2 (melanoma, NRAS Q61R) cells (obtained from ATCC, USA) were seeded (5000 cells/well) in 96-well tissue culture plate and incubated at 37° C./5% CO2 for 16-24 hours. The cells were then treated with compounds, at concentrations typically from 0.0005 to 10 uM prepared in 3-fold serial dilutions. The plates were then incubated for 72 h at 37° C./5% CO2 in a moist environment. Then Alamar Blue™ reagent (final concentration 1×) was added to each well and incubated for 1-3 h at 37° C./5% CO2. The plates were read on fluorescence reader at 540 nm excitation and 590 nm emission wavelengths. The IC50 values were subsequently determined using a sigmoidal dose-response curve (variable slope) using GraphPad Prism® 5 software.

In assay [2] the test system is HT-29 (colorectal carcinoma, B-RafV600E) cells. Kind of assay: Cell proliferation (Alamar Blue) assay, HT-29. In kind it is cell-based, human. The settings on record: Homo sapiens, HT-29, HT29 cells. As for the experimental part: as §1, §2
Background: Resazurin is reduced to fluorescent resorufin, in cell work by metabolically active cells.

A word on the IC50: it is the concentration at which inhibition is half-maximal. Read a low IC50 as greater potency in that assay. With `Cc1cnc(Nc2ccc3c(c2)OCO3)nc1-n1cc(NC(=O)N[C@H](CO)c2cccc(Cl)c2)cn1` [Example 44, (S)-1-(1-(2-(benzo[d][1,3]dioxol-5-ylamino)-5-methyl-pyrimidin-4-yl)-1H-pyrazol-4-yl)-3-(1-(3-chloro-phenyl)-2-hydroxy-ethyl)urea], the IC50 in assay [1] and in assay [2] was greater than 2500 nM throughout.

As for `Cc1cnc(Nc2ccccc2Cl)nc1-n1cc(NC(=O)N[C@H](CO)c2cccc(Cl)c2)cn1` [Cmpd 2, (S)-1-(1-(3-chlorophenyl)-2-hydroxyethyl)-3-(1-(2-((2-chloro-phenyl)amino)-5-methylpyrimidin-4-yl)-1H-pyrazol-4-yl)urea], the IC50 in assay [1] and in assay [2] was greater than 2500 nM in each case.

In the case of `Cc1cnc(Nc2ccc3ocnc3c2)nc1-n1ccc(C(=O)NC(CO)c2ccccc2)c1` (stereo not shown) [Example 104, 1-(2-(benzo[d]oxazol-5-ylamino)-5-methyl-pyrimidin-4-yl)-N-(2-hydroxy-1-phenylethyl)-1H-pyrrole-3-carboxamide], the IC50 in assay [1] and in assay [2] was greater than 2500 nM each time.

For `O=C(Nc1cnn(-c2nc(NC3CC3)ncc2F)c1)N[C@H](CO)c1cccc(Cl)c1` [Example 30, (S)-1-(1-(3-chlorophenyl)-2-hydroxy-ethyl)-3-(1-(2-(cyclo-propyl-amino)-5-fluoro-pyrimidin-4-yl)-1H-pyrazol-4-yl)urea], the IC50 in assay [1] and in assay [2] was greater than 2500 nM in each case.

For the compound `Cc1cnc(NC2CCN(C)C2)nc1-n1ccc(C(=O)N[C@H](CO)c2cccc(Cl)c2)c1` (stereo partly drawn) [Example 208, N-((S)-1-(3-chlorophenyl)-2-hydroxyethyl)-1-(5-methyl-2-((1-methylpyrrolidin-3-yl)amino)pyrimidin-4-yl)-1H-pyrrole-3-carboxamide], the values for the IC50 in assay [1] and in assay [2] were greater than 2500 nM and 500 to 2500 nM, respectively.

For the compound `Cc1cnc(Nc2ccc3c(c2)OCO3)nc1-n1cc(NC(=O)NC(CO)c2cccc(Cl)c2)cn1` (stereo not shown) [Example 37, 1-(1-(2-(benzo[d][1,3]dioxol-5-ylamino)-5-methyl-pyrimidin-4-yl)-1H-pyrazol-4-yl)-3-(1-(3-chlorophenyl)-2-hydroxy-ethyl)urea], the IC50 in assay [1] was 500 to 2500 nM; in assay [2], greater than 2500 nM.

In the case of `Cc1cn(-c2nc(Nc3ccc(F)cc3)ncc2C)cc1C(=O)NC(CO)c1ccccc1` (stereo not shown) [Example 108, 1-(2-((4-fluoro-phenyl)amino)-5-methyl-pyrimidin-4-yl)-N-(2-hydroxy-1-phenylethyl)-4-methyl-1H-pyrrole-3-carboxamide], the IC50 in assay [1] and in assay [2] was greater than 2500 nM throughout.

As to `O=C(Nc1cnn(-c2ccnc(NC3CC3)n2)c1)N[C@H](CO)c1cccc(Cl)c1` [Example 6, (S)-1-(1-(3-chlorophenyl)-2-hydroxyethyl)-3-(1-(2-(cyclo-propyl-amino)pyrimidin-4-yl)-1H-pyrazol-4-yl)urea], the IC50 in assay [1] and in assay [2] was greater than 2500 nM each time.

Regarding `CN1CCN(c2ccc(Nc3nccc(-n4cc(NC(=O)N[C@H](CO)c5cccc(Cl)c5)cn4)n3)cc2)CC1` [Example 22, (S)-1-(1-(3-chlorophenyl)-2-hydroxy-ethyl)-3-(1-(2-((4-(4-methyl-piperazin-1-yl)-phenyl)amino)pyrimidin-4-yl)-1H-pyrazol-4-yl)urea], the IC50 in assay [1] and in assay [2] was greater than 2500 nM throughout.

Take `Cc1cnc(Nc2cc3c(cc2Cl)OCO3)nc1-n1ccc(C(=O)NC(CO)c2cccc(Cl)c2)c1` (stereo not shown) [Example 101, 1-(2-((6-chloro-benzo[d][1,3]dioxol-5-yl)amino)-5-methyl-pyrimidin-4-yl)-N-(1-(3-chlorophenyl)-2-hydroxy-ethyl)-1H-pyrrole-3-carboxamide]: the IC50 in assay [1] is greater than 2500 nM; in assay [2], 500 to 2500 nM.

Consider `Cc1cnc(NC2CCOCC2)nc1-n1ccc(C(=O)NC(CO)c2ccccc2)c1` (stereo not shown) [Example 120, N-(2-hydroxy-1-phenylethyl)-1-(5-methyl-2-((tetrahydro-2H-pyran-4-yl)amino)pyrimidin-4-yl)-1H-pyrrole-3-carboxamide], for which the IC50 in assay [1] and in assay [2] was greater than 2500 nM each time.

As to `Cc1cnc(NC2CC2)nc1-n1cc(C(=O)N[C@H](CO)c2cccc(Cl)c2)cn1` [Cmpd 39, (S)-N-(1-(3-chlorophenyl)-2-hydroxy-ethyl)-1-(2-(cyclopropyl-amino)-5-methyl-pyrimidin-4-yl)-1H-pyrazole-4-carboxamide], the IC50 in assay [1] and in assay [2] was greater than 2500 nM in each case.

In the case of `O=C(Nc1cnn(-c2ccnc(Nc3ccccc3Cl)n2)c1)N[C@H](CO)c1ccccc1` [Example 7, (S)-1-(1-(2-((2-chlorophenyl)amino)pyrimidin-4-yl)-1H-pyrazol-4-yl)-3-(2-hydroxy-1-phenylethyl) urea], the IC50 in assay [1] and in assay [2] was greater than 2500 nM in each case.

Regarding `Cc1cnc(Nc2ccc3c(c2)OC(F)(F)O3)cc1-n1ccc(C(=O)NC(CO)c2cccc(Cl)c2)c1` (stereo not shown) [Example 92, N-(1-(3-chlorophenyl)-2-hydroxy-ethyl)-1-(2-((2,2-difluoro-benzo[d][1,3]dioxol-5-yl)amino)-5-methyl-pyridin-4-yl)-1H-pyrrole-3-carboxamide], the values for the IC50 in assay [1] and in assay [2] were greater than 2500 nM and 500 to 2500 nM, respectively.

As for `Cc1cnc(Nc2ccc3c(c2)OCO3)cc1-n1cnc(C(=O)NC(CO)c2cccc(Cl)c2)c1` (stereo not shown) [Example 88, 1-(2-(benzo[d][1,3]dioxol-5-ylamino)-5-methyl-pyridin-4-yl)-N-(1-(3-chloro-phenyl)-2-hydroxy-ethyl)-1H-imidazole-4-carboxamide], the half-inhibitory concentration (IC50) in assay [1] and in assay [2] was greater than 2500 nM in each case.

For `Cc1cnc(Nc2ccc3c(c2)OCO3)nc1-n1cc(C(=O)N[C@H](CO)c2cccc(Cl)c2)cn1` [Example 50, (S)-1-(2-(benzo[d][1,3]dioxol-5-ylamino)-5-methyl-pyrimidin-4-yl)-N-(1-(3-chloro-phenyl)-2-hydroxy-ethyl)-1H-pyrazole-4-carboxamide], the IC50 in assay [1] and in assay [2] was greater than 2500 nM each time.

With `O=C(Nc1cnn(-c2ccnc(Nc3ccccc3Cl)n2)c1)N[C@@H](CO)c1ccccc1` [Example 4, (R)-1-(1-(2-((2-chlorophenyl)amino)pyrimidin-4-yl)-1H-pyrazol-4-yl)-3-(2-hydroxy-1-phenylethyl) urea], the IC50 in assay [1] and in assay [2] was greater than 2500 nM throughout.

These data come from patent US11925629B2, “Heterocyclic inhibitors of ERK1 and ERK2 and their use in the treatment of cancer” (Asana Biosciences, LLC, priority 2015, dated 2024).
